What was measured:
[1] = biological target: T1, human CB2 receptor (Homo sapiens, UniProt P34972); experiment: selectivity for human CB2 receptor versus human CB1 receptor; settings: human CB2 vs human CB1
Excerpt: (§1) Methods of treating pain, including visceral pain with APD371 are described in US patent application publication no. 2020-0078358, which is herein incorporated by reference in its entirety.

[2] = biological target: T2, rat CB2 receptors (Rattus norvegicus, UniProt Q9QZN9); experiment: CB2 receptor internalization efficacy relative to CP55,940 (rat); type: cell-based
T2 sequence (Q9QZN9 1-360): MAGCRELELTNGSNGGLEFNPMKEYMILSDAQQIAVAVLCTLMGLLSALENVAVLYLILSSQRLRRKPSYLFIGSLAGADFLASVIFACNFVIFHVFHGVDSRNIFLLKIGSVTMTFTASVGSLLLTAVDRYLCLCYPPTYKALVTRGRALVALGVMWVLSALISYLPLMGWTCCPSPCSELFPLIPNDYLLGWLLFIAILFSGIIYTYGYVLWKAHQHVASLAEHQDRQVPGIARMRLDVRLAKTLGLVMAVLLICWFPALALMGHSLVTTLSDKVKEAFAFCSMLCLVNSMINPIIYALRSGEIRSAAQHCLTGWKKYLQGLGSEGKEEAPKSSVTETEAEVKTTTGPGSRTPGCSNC
Excerpt: as §1

[3] = biological target: T1, human CB2 receptor; experiment: CB2 receptor internalization efficacy relative to CP55,940 (human); type: cell-based
Excerpt: as §1

[4] = system: osteoarthritis pain; experiment: osteoarthritis pain model; type: in vivo
Excerpt: as §1

[5] = system: paclitaxel-induced neuropathic pain; experiment: paclitaxel-induced neuropathic pain model; settings: in vivo
Excerpt: as §1

[6] = system: painful peripheral diabetic neuropathy; experiment: painful peripheral diabetic neuropathy model; settings: in vivo
Excerpt: as §1

[7] = system: subjects with irritable bowel syndrome experiencing abdominal pain; settings: 50 mg tid, week 12, subgroup with baseline AAPS >= 6.5 (moderate to severe pain)

T1 sequence (P34972 whole entry): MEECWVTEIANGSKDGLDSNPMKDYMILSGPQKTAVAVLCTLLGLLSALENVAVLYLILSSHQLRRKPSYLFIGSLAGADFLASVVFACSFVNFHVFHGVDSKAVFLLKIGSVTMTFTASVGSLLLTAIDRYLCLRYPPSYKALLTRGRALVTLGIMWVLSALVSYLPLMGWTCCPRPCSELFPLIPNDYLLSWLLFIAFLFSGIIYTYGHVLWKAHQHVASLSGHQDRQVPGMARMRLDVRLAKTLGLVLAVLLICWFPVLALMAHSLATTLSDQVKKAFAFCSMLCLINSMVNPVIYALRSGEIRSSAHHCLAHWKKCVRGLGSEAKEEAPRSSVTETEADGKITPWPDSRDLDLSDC

selectivity for the human CB2 receptor versus the human CB1 receptor [1]: > 1,000 fold | receptor internalization efficacy relative to CP55,940 [2]: 105% | receptor internalization efficacy relative to CP55,940 [3]: 96%
SMILES: CC(C)(C)[C@@H](CO)NC(=O)c1nn(-c2c[n+]([O-])ccn2)c2c1C[C@@H]1C[C@H]21 [Compound A, (1aS,5aS)-2-(4-Oxy-pyrazin-2-yl)-1a,2,5,5a-tetrahydro-1H-2,3-diaza-cyclopropa[a]pentalene-4-carboxylic acid ((S)-1-Hydroxymethyl-2,2-dimethyl-propyl)-amide]
efficacy in model of osteoarthritis pain ([4]; in vivo): sustained efficacy | duration of in vivo efficacy following dosing ([4]; osteoarthritis pain model, despite rapidly declining plasma concentrations): maintained in vivo efficacy for four hours following dosing | efficacy in model of paclitaxel-induced neuropathic pain [5]: sustained efficacy | efficacy in model of painful peripheral diabetic neuropathy [6]: sustained efficacy | reduction in AAPS from baseline [7]: 3.93 points | reduction in AAPS compared to placebo ([7]; p=0.01): 1.64 points

— patent US20240165109A1, “Methods of Treatment with Selective CB2 Receptor Agonists” (Arena Pharmaceuticals, Inc., priority 2021, published 2024)
